Test results: patent US12269804B2, “Quinoxalinone compounds, compositions, methods, and kits for increasing genome editing efficiency” (VERTEX PHARMACEUTICALS INCORPORATED, priority 2018, dated 2025)
Like-named read-outs stand apart in the source and are kept apart here.

Columns and labels:
Type in all cases: cell-based, human
[1] = system: Bronchial Epithelial Cells (BECs), AAVS1; assay: HDR rates in BECs, gene editing components delivered by lipid-mediated transfection (AAVS1); settings: AAVS1, lipid-based transfection, 72 hs after transfection
Method: (§1) Bronchial Epithelial Cells (BECs) were derived from human donors diagnosed with Cystic Fibrosis with a CFTR dF508/dF508 genotype.
One day prior to transfection, BECs were seeded in a 96-well plate at a cell density of 1×E4 cells per well in BECs culture media. First, 0.15 μl of MessengerMax (ThermoFisher, LMRNA 003) was diluted into 5 μl of Opti-MEM and incubated for 10 min at room temperature. Meanwhile, 80 ng of Cas9 mRNA (Trilink, L-7206), 20 ng of sgRNA (Synthego) and 1 picomol of ssODN were added to 5 μl of Opti-MEM and then mixed with MessengerMAx solution. The mixture was incubated for 5 min prior to addition to the cells. The entire solution was added to the cells in a well of 96-well plate with 100 μl of culture media with or without DNA-PK inhibitors. Cells were incubated at 37° C. for in a 5% CO2 incubator. […]
(§2) Each sequence chromatogram was analyzed using TIDE (Tracking of Indels by Decomposition) software (http://tide.nki.nl) (See also Brinkman et al., Nucleic Acids Research, Volume 42, Issue 22, 16 Dec. 2014, Pages e168). […] NHEJ Rates were calculated as Total Indel rate—HDR rate. […]
To investigate the effects of lipid-mediated transfection, BEC were transfected with spCAS9 mRNA, AAVS1 sgRNA and AAVS1 PAM ssODN and then incubated with different concentration of Compound 1 or left untreated (Control). Gene editing rates were determined by using TIDE assay 72 hs after transfection.

[2] = system: Bronchial Epithelial Cells (BECs), NAV1.7; assay: Gene editing rates (TIDE assay) in BECs electroporated with spCAS9 mRNA, NAV1.7 sgRNA and NAV1.7 Non-PAM ssODN
Method: as §1
(§3) For BECs, the following conditions were used for electroporation: 1.8×E5 Cells, 250 ng of CAS9 mRNA, 500 ng of sgRNA and 0.66 μM of ssODN in 20 μl of P4 Electroporation buffer by using program CM-138. The electroporated cells were transferred to a 96 well plate containing 100 μl of BEC culture media supplemented with DNA-PK inhibitors or left untreated. Cells were incubated at 37° C. in a 5% CO2 incubator.
(§4) Genomic DNA was isolated by incubating cells with 50 μl DNA Quickextract solution (Epicentre) per well of 96 well plate for 30 min at 37° C. Cellular extract was mixed and transferred into a PCR plate and then incubated for 6 min at 65° C. and 2 min at 98° C. PCR reactions were carried out with 1 μl of Genomic DNA containing solution by using AccuPrime™ Pfx DNA Polymerase (Thermofisher, 12344024). PCR conditions were 4 min at 94° C. (1×), followed by 15 s at 94° C., 15 s at 60° C. and 1 min at […] (40×). The PCR products were purified and then Sanger sequenced by GENEWIZ. The following primer pairs spanning the target site were used for PCR (FW, forward; RV, reverse). Primers used by Sanger Sequencing are indicated by an asterisk (*): […]
(§5) Each sequence chromatogram was analyzed using TIDE (Tracking of Indels by Decomposition) software (http://tide.nki.nl) (See also Brinkman et al., Nucleic Acids Research, Volume 42, Issue 22, 16 Dec. 2014, Pages e168). Mock-electroporated samples were used as the reference sequence, and parameters were set to an indel size of 30 nt, and the decomposition window was set to cover the largest possible window with high-quality traces. Total indel (insertion and deletions) rates were obtained directly from TIDE plots. HDR rates were the percentage of events with an insertion of 10 Nucleotides. NHEJ Rates were calculated as Total Indel rate—HDR rate. GraphPad Prism 7 software was used to make Graphs and to calculate the all Statistical information.
(§6) FIG. 1 illustrates the design of the gene editing assays used in the examples below. To investigate the effect of DNA-PK inhibitors on HDR gene editing rates, BECs were electroporated with spCAS9 mRNA, NAV1.7 sgRNA and NAV1.7 Non-PAM ssODN and then incubated with different concentrations Compound 1 or left untreated (Control). Gene editing rates were determined by using TIDE assay 72 hs after electroporation. Gene editing rates were expressed in percentages and classified as HDR and NHEJ. Cell survival rates are shown in percentages where control cells were set as 100%.

[3] = system: Bronchial Epithelial Cells (BECs), AAVS1; assay: Gene editing rates (TIDE assay) in BECs electroporated with spCAS9 mRNA, AAVS1 sgRNA and AAVS1 PAM ssODN
Method: as §1, §3
as §4, with “reverse).” for “reverse). Primers used by Sanger Sequencing are indicated by an asterisk (*):”
as §2
To investigate the gene editing kinetics at EC max, BECs were electroporated with spCAS9 mRNA, AAVS1 sgRNA and AAVS1 PAM ssODN and then incubated at different times with 10 μM Compound 1 or left untreated (Control). Gene editing rates were determined by using TIDE assay and expressed in percentages of HDR and NHEJ. […]
BECs were electroporated with spCAS9 mRNA, AAVS1 sgRNA and AAVS1 PAM ssODN and then incubated at different times with 0.7 μM Compound 1 or left untreated (Control). Gene editing rates were determined by using TIDE assay and expressed in percentages of HDR and NHEJ. […]

[4] = system: Induced Pluripotent Stem Cells (iPSCs), AAVS1; assay: Gene editing rates (TIDE assay) in iPSCs electroporated with spCAS9 mRNA, AAVS1 sgRNA and AAVS1 PAM ssODN
Method: Induced Pluripotent Stem Cells (iPSCs) were derived from Human dermal fibroblasts after viral transduction with Yamanaka's reprogramming factors, Oct4, Sox2, KLF4 and c-Myc. Derived iPSCs were able to differentiate into 3 germ layers and contained a normal karyotype with 23 pairs of Chromosomes.
For iPSCs the following conditions were used: 2.0×E5 Cells, 250 ng of CAS9 mRNA, 500 ng of sgRNA and 0.66 μM of ssODN in 20 μl of P3 Electroporation buffer by using program CA-137. The electroporated cells were transferred to a 96 well plate containing 100 μl of mTEsR1 media (Stem Cell Technologies) supplemented with 10 μM ROCK Inhibitor Y-27632 (Stem Cell Technologies) with or without DNA-PK inhibitors and then incubated at 37° C. in a 5% CO2 incubator.
as §4, §5
as §6, with “To” for “FIG. 1 illustrates the design of the gene editing assays used in the examples below. To”, “iPSCs” for “BECs”, “AAVS1” for “NAV1.7”, “AAVS1 PAM” for “NAV1.7 Non-PAM”, “concentrations of” for “concentrations”

mPB CD34+ cells, NAV1.7 = assay: Gene editing rates (TIDE assay) in mPB CD34+ cells electroporated with RNP (spCAS9 protein+NAV1.7 sgRNA) and NAV1.7 Non-PAM ssODN; settings: for EC50: Homo sapiens
Method: (§7) Primary human mobilized peripheral blood (mPB) CD34^+ hematopoietic stem and progenitor cells (HSPCs) were purchased from Hemacare or AllCells. Cells were thawed, washed and resuspended in complete medium comprised of serum free medium CellGro SCGM (CellGenix) and supplemented with cytokine mix (300 ng/mL SCF, 300 ng/mL Flt3L, 100 ng/mL TPO, 60 ng/ml IL-3) at a density of 1-3×10^5 cells per mL and incubated at 37° C./5% CO2 incubator for 48 hours prior to electroporation.
(§8) CD34+ cells were electroporated two days post thaw. The following conditions were used for electroporation: 2.0×E6 cells, 15 μg Cas9 protein (Feldan), 15 μg sgRNA, 1 μM of ssODN in 100 μl of P3 electroporation buffer using program CA-137. Electroporated cells were transferred by equally dividing them into eight wells of a 24-well plate, each well containing various concentrations of DNA-PK inhibitors. Cells were incubated at 37° C. in a 5% CO2 incubator for two days and evaluated for cell viability and gene editing.
as §4, §5
To investigate the effect of DNA-PK inhibitors on HDR gene editing rates, mPB CD34+ cells were electroporated with RNP (spCAS9 protein+NAV1.7 sgRNA) and NAV1.7 Non-PAM ssODN. Cells were then incubated with various concentrations of Compound 1. Gene editing rates were determined by using TIDE assay 48 h after electroporation. Gene editing rates were expressed in percentages and classified as HDR and NHEJ as shown in FIG. 3A (Donor B) and FIG. 3B (Donor C. Cell survival rates are shown in percentages where control cells were set as 100%.

CD34+ cells, AAVS1 = assay: HDR gene editing in CD34+ cells at AAVS1 (Summary Table); settings: for EC50: Homo sapiens
Method: as §7, §8, §4, §5

Question: How did the HDR efficiency rates [1] turn out when `Cn1c(=O)cnc2cc(N3CCOCC3)cc(O[C@H]3CC[C@@H](Nc4ncccn4)CC3)c21` [Compound 1, 1-methyl-6-morpholino-8-(((1,4-cis)-4-(pyrimidin-2-ylamino)cyclohexyl)oxy)quinoxalin-2(1H)-one] was run?
Answer: increasing HDR efficiency rates with increasing concentrations

Question: What about the EC50 ([2]; Homo sapiens, Epithelial cell, NAV1.7, TIDE assay 72 hs after electroporation, read-out: HDR EC50) of the same compound?
Answer: 445 nM

Question: And the IC50 ([2]; Homo sapiens, Epithelial cell, NAV1.7, TIDE assay 72 hs after electroporation, read-out: NHEJ IC50)?
Answer: 445 nM

Question: And the EC50 ([2]; Homo sapiens, Epithelial cell, NaV1.7, read-out: HDR EC50)?
Answer: 720 nM

Question: And the “HDR TOP %” value ([2]; NAV1.7, TIDE assay 72 hs after electroporation)?
Answer: 69.37%

Question: What about the “HDR Max %” value ([2]; NaV1.7) of the same compound?
Answer: 69%

Question: And the “HDR Max %” value [3]?
Answer: 66%

Question: What about the “Maximum Enhance Concentration (ECmax)” value [3] of the same compound?
Answer: 10 µM

Question: And the EC50 ([3]; Homo sapiens, Epithelial cell, read-out: Enhance Concentration 50 (EC50))?
Answer: 700 nM

Question: What about the “HDR Max %” value ([4]; AAVS1) of the same compound?
Answer: 24%

Question: What about the “HDR TOP %” value ([4]; AAVS1, TIDE assay 72 hs after electroporation) of the same compound?
Answer: 24.41%

Question: And the EC50 ([4]; Homo sapiens, iPSC, AAVS1, TIDE assay 72 hs after electroporation, read-out: HDR EC50)?
Answer: 325 nM

Question: And the IC50 ([4]; Homo sapiens, iPSC, AAVS1, TIDE assay 72 hs after electroporation, read-out: NHEJ IC50)?
Answer: 474 nM

Question: What about the EC50 ([4]; Homo sapiens, iPSC, AAVS1, read-out: HDR EC50) of the same compound?
Answer: 330 nM

Question: What about the “HDR Max %” value (mPB CD34+ cells, NAV1.7; CD34+, Donor A, NaV1.7) of the same compound?
Answer: 82%

Question: And the “HDR Max %” value (mPB CD34+ cells, NAV1.7; CD34+, Donor B, NaV1.7)?
Answer: 86%

Question: What about the “HDR Max %” value (mPB CD34+ cells, NAV1.7; CD34+, Donor C, NaV1.7) of the same compound?
Answer: 67%

Question: What about the EC50 (mPB CD34+ cells, NAV1.7; 48 h, CD34+ cells, Donor B, NAV1.7, 48 h after electroporation, read-out: EC50 of HDR) of the same compound?
Answer: 290 nM

Question: And the EC50 (mPB CD34+ cells, NAV1.7; 48 h, CD34+ cells, Donor B, NAV1.7, 48 h after electroporation, read-out: EC50 of Indel formation)?
Answer: 350 nM

Question: And the EC50 (mPB CD34+ cells, NAV1.7; CD34+, Donor A, NaV1.7, read-out: HDR EC50)?
Answer: 390 nM

Question: And the EC50 (mPB CD34+ cells, NAV1.7; CD34+, Donor B, NaV1.7, read-out: HDR EC50)?
Answer: 290 nM

Question: What about the EC50 (mPB CD34+ cells, NAV1.7; CD34+, Donor C, NaV1.7, read-out: HDR EC50) of the same compound?
Answer: 110 nM

Question: And the “HDR Max %” value (CD34+ cells, AAVS1; Donor A)?
Answer: 76%

Question: And the “HDR Max %” value (CD34+ cells, AAVS1; Donor C)?
Answer: 88%

Question: And the EC50 (CD34+ cells, AAVS1; Donor A)?
Answer: 120 nM

Question: What about the EC50 (CD34+ cells, AAVS1; Donor C) of the same compound?
Answer: 180 nM
